{"source": "ChEMBL document CHEMBL1129340", "about": "“New prolyl endopeptidase inhibitors: in vitro and in vivo activities of azabicyclo[2.2.2]octane, azabicyclo[2.2.1]heptane, and perhydroindole derivatives” (J Med Chem, 1996)", "assay": "Half life was evaluated", "assay_type": "ADME"}
{"smiles": "O=C([C@@H]1C2CCC(CC2)N1C(=O)[C@@H]1C[C@@H]1c1ccccc1)N1CCCC1", "values": [{"measurement": "half-life", "result": 7, "unit": "h"}]}
